Measured values taken from patent publication US20260274829A1, “NEW E3 UBIQUITIN LIGASE LIGAND, PROTEIN DEGRADATION AGENT AND USE THEREOF” (GLUETACS THERAPEUTICS (SHANGHAI) CO., LTD., priority 2023, published 2026).

Key:
Assay type in all cases: cell-based
WEE1 = target: T1, WEE1 (Homo sapiens, UniProt P30291+Q96SW2); test: Western blot degradation of WEE1 in hPBMC
T1 construct: endogenous in cells; host or cells: hPBMC
In short: (§1)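 Compound-treated hPBMC lysates were denatured in SDS loading buffer at 95° C for 5 minutes, run on SDS-PAGE and blotted to nitrocellulose. DC50 is the concentration giving band grayscale half that of DMSO controls, from a fitted concentration-response curve; remaining protein is band intensity normalized to an internal control protein.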

IKZF1 = target: T2, IKZF1 (Homo sapiens, UniProt Q13422+Q96SW2); test: Western blot degradation of IKZF1 in hPBMC
T2 construct: endogenous in cells; host or cells: hPBMC
T2 sequence (Q13422 whole entry): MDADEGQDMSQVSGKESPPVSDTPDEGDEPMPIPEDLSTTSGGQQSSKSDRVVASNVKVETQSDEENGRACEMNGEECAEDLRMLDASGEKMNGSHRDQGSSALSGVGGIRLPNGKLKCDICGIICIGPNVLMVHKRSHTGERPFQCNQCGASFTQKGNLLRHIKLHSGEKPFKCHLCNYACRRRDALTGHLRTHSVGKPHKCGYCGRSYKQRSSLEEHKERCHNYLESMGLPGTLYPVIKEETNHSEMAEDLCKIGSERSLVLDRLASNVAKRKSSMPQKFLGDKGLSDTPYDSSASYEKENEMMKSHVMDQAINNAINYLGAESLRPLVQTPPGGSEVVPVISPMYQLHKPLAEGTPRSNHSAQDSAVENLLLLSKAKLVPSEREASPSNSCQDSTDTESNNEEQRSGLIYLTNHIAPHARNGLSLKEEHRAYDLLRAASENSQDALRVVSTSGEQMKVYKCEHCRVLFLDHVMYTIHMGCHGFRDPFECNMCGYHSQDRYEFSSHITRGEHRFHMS
T2 sequence (Q96SW2 whole entry): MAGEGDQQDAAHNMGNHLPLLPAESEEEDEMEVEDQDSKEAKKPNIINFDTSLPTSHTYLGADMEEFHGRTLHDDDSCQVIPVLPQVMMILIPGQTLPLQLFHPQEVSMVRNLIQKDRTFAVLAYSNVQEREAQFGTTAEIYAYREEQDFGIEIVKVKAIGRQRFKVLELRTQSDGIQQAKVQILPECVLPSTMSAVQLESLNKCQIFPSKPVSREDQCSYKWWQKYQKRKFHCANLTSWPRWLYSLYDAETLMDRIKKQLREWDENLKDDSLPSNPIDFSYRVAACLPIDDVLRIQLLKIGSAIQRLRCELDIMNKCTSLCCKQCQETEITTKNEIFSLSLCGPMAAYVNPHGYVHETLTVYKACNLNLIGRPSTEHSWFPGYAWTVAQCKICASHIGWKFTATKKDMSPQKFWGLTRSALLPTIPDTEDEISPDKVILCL
T2 sequence (Q16531 whole entry partner): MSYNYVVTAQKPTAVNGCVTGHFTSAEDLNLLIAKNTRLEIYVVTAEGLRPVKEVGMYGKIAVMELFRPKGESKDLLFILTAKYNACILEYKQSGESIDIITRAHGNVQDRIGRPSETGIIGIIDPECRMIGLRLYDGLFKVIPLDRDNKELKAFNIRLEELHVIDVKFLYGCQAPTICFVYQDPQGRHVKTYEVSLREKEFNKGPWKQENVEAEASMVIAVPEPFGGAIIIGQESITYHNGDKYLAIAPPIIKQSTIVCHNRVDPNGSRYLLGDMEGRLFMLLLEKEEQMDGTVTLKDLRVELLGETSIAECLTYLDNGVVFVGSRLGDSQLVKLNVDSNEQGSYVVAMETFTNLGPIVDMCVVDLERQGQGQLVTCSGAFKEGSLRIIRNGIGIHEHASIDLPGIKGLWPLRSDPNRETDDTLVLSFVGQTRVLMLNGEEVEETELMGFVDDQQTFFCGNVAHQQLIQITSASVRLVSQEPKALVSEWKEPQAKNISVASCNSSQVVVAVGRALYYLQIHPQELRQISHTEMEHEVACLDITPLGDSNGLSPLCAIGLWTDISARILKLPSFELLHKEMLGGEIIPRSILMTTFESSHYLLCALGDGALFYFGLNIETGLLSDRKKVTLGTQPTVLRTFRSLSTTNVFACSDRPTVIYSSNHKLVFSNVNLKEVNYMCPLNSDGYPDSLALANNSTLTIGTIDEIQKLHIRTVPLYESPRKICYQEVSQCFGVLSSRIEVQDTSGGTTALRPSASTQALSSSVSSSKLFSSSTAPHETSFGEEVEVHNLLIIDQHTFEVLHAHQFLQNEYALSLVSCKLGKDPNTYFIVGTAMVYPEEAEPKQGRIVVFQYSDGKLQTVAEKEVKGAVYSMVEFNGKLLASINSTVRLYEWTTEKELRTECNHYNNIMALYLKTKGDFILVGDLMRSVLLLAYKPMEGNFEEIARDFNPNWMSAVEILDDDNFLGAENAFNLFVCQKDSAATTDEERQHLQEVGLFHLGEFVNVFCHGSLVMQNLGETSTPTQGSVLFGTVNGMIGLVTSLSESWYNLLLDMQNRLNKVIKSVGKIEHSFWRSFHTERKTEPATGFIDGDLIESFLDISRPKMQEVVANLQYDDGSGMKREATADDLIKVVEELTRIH
In short: as §1

IKZF2 = target: T3, IKZF2 (Homo sapiens, UniProt Q96SW2+Q9UKS7); test: Western blot degradation of IKZF2 in hPBMC
T3 construct: endogenous in cells; host or cells: hPBMC
T3 sequence (Q9UKS7 whole entry): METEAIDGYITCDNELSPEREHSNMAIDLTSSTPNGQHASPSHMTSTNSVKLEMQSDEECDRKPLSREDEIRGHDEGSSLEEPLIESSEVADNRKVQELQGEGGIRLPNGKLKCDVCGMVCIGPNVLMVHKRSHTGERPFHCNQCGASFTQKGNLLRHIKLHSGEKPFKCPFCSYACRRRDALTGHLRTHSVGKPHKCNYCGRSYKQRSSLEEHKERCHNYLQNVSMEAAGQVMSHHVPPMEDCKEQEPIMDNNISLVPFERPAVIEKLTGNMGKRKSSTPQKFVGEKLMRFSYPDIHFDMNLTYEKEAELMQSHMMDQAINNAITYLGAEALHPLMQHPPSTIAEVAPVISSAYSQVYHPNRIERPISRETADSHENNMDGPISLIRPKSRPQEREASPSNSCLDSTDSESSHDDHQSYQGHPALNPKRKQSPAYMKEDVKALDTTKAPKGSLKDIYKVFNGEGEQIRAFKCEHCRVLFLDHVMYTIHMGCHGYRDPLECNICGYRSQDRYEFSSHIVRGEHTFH
T3 sequence (Q96SW2 whole entry): as the sequence (Q96SW2 whole entry) above
T3 sequence (Q16531 whole entry partner): as the sequence (Q16531 whole entry partner) above
In short: as §1

IKZF3 = target: T4, IKZF3 (Homo sapiens, UniProt Q96SW2+Q9UKT9); test: Western blot degradation of IKZF3 in hPBMC
T4 construct: endogenous in cells; host or cells: hPBMC
T4 sequence (Q9UKT9 whole entry): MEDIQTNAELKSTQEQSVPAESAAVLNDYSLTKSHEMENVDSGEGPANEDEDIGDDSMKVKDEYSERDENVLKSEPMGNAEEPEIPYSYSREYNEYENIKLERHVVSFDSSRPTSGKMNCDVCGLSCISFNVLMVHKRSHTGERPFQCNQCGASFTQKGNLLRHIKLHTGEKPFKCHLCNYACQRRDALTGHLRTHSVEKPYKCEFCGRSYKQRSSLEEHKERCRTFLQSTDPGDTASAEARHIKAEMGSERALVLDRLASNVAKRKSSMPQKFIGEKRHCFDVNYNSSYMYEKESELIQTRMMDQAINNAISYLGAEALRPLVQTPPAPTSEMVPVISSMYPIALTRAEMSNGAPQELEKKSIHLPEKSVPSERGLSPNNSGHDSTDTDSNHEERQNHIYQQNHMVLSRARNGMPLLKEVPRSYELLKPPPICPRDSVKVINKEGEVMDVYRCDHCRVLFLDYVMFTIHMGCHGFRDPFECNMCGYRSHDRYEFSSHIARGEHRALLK
T4 sequence (Q96SW2 whole entry): as the sequence (Q96SW2 whole entry) above
T4 sequence (Q16531 whole entry partner): as the sequence (Q16531 whole entry partner) above
In short: as §1

CK1a = target: T5, CK1a (Homo sapiens, UniProt P48729+Q96SW2); test: Western blot degradation of CK1a in hPBMC
T5 construct: endogenous in cells; host or cells: hPBMC
In short: as §1

GSPT1 = target: T6, GSPT1 (Homo sapiens, UniProt P15170+Q96SW2); test: Western blot degradation of GSPT1 in hPBMC
T6 construct: endogenous in cells; host or cells: hPBMC
T6 sequence (P15170 whole entry): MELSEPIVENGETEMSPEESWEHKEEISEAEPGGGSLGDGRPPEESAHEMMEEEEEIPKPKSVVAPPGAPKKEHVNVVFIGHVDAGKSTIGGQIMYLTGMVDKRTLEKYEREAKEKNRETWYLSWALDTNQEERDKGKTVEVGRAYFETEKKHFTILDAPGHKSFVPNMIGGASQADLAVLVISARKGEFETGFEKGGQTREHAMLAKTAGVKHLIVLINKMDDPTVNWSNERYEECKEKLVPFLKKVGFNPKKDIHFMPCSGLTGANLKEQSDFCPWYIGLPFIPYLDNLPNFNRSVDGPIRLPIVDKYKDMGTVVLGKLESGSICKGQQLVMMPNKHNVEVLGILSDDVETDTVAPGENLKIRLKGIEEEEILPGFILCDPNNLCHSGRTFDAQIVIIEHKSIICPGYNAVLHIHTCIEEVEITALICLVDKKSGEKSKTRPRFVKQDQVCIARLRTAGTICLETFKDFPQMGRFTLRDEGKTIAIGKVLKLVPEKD
T6 sequence (Q96SW2 whole entry): as the sequence (Q96SW2 whole entry) above
T6 sequence (Q16531 whole entry partner): as the sequence (Q16531 whole entry partner) above
In short: as §1

T1 sequence (P30291 whole entry): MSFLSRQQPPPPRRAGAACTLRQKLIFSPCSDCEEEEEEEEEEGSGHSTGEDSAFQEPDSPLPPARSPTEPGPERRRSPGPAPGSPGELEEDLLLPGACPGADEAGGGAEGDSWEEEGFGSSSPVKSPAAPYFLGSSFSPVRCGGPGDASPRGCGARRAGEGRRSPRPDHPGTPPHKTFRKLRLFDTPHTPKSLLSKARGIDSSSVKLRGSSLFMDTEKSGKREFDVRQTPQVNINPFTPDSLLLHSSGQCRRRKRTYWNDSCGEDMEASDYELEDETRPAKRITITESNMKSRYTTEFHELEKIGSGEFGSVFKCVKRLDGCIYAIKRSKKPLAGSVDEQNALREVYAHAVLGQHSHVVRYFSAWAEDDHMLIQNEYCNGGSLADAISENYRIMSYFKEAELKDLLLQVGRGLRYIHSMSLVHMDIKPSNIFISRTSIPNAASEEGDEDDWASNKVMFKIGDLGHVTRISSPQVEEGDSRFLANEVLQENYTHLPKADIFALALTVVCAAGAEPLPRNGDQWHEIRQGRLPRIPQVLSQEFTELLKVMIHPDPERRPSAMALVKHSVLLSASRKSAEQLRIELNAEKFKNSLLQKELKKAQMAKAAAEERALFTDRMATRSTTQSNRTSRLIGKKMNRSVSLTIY
T1 sequence (Q96SW2 whole entry): as the sequence (Q96SW2 whole entry) above
T1 sequence (Q16531 whole entry partner): as the sequence (Q16531 whole entry partner) above

Row | Compound | Degradation of substrate protein WEE1 (substrate protein remaining %) (WEE1) | Degradation of substrate protein IKZF1 (substrate protein remaining %) (IKZF1) | Degradation of substrate protein IKZF2 (substrate protein remaining %) (IKZF2) | Degradation of substrate protein IKZF3 (substrate protein remaining %) (IKZF3) | Degradation of substrate protein CK1a (substrate protein remaining %) (CK1a) | Degradation of substrate protein GSPT1 (substrate protein remaining %) (GSPT1)
1 | CC(C)(C)[Si](C)(C)OCc1cc(NC2CCC(=O)NC2=O)ncc1F (stereo not drawn) [GT-07724, 3-((4-(((tert-butyldimethylsilyl)oxy)methyl)-5-fluoropyridin-2-yl)amino)piperidine-2,6-dione] | A (A is defined as 0% ≤ substrate protein remaining % ≤ 80%) | A (A is defined as 0% ≤ substrate protein remaining % ≤ 80%) | A (A is defined as 0% ≤ substrate protein remaining % ≤ 80%) | A (A is defined as 0% ≤ substrate protein remaining % ≤ 80%) | B (B is defined as substrate protein remaining % > 80%) | A (A is defined as 0% ≤ substrate protein remaining % ≤ 80%)
2 | O=C1CCC(Nc2cc(CO)c(F)cn2)C(=O)N1 (stereo not drawn) [GT-07725, 3-((5-fluoro-4-(hydroxymethyl)pyridin-2-yl)amino)piperidine-2,6-dione] | A (A is defined as 0% ≤ substrate protein remaining % ≤ 80%) | A (A is defined as 0% ≤ substrate protein remaining % ≤ 80%) | A (A is defined as 0% ≤ substrate protein remaining % ≤ 80%) | A (A is defined as 0% ≤ substrate protein remaining % ≤ 80%) | B (B is defined as substrate protein remaining % > 80%) | A (A is defined as 0% ≤ substrate protein remaining % ≤ 80%)
3 | CC(C)(C)[Si](C)(C)OCc1ccc(NC2CCC(=O)NC2=O)nn1 (stereo not drawn) [GT-07726, 3-((6-(((tert-butyldimethylsilyl)oxy)methyl)pyridazin-3-yl)amino)piperidine-2,6-dione] | A (A is defined as 0% ≤ substrate protein remaining % ≤ 80%) | A (A is defined as 0% ≤ substrate protein remaining % ≤ 80%) | A (A is defined as 0% ≤ substrate protein remaining % ≤ 80%) | A (A is defined as 0% ≤ substrate protein remaining % ≤ 80%) | B (B is defined as substrate protein remaining % > 80%) | B (B is defined as substrate protein remaining % > 80%)
4 | O=C1CCC(Nc2ncncc2CO)C(=O)N1 (stereo not drawn) [GT-07727, 3-((5-(hydroxymethyl)pyrimidin-4-yl)amino)piperidine-2,6-dione] | A (A is defined as 0% ≤ substrate protein remaining % ≤ 80%) | A (A is defined as 0% ≤ substrate protein remaining % ≤ 80%) | A (A is defined as 0% ≤ substrate protein remaining % ≤ 80%) | A (A is defined as 0% ≤ substrate protein remaining % ≤ 80%) | B (B is defined as substrate protein remaining % > 80%) | B (B is defined as substrate protein remaining % > 80%)
5 | O=C1CCN(c2cncc(CCl)n2)C(=O)N1 [GT-07728, 1-(6-(chloromethyl)pyrazin-2-yl)dihydropyrimidine-2,4(1H,3H)-dione] | A (A is defined as 0% ≤ substrate protein remaining % ≤ 80%) | A (A is defined as 0% ≤ substrate protein remaining % ≤ 80%) | A (A is defined as 0% ≤ substrate protein remaining % ≤ 80%) | A (A is defined as 0% ≤ substrate protein remaining % ≤ 80%) | B (B is defined as substrate protein remaining % > 80%) | B (B is defined as substrate protein remaining % > 80%)
6 | NCc1cc(N2CCC(=O)NC2=O)cnc1F [GT-07729, 1-(5-(aminomethyl)-6-fluoropyridin-3-yl)dihydropyrimidine-2,4(1H,3H)-dione] | A (A is defined as 0% ≤ substrate protein remaining % ≤ 80%) | A (A is defined as 0% ≤ substrate protein remaining % ≤ 80%) | A (A is defined as 0% ≤ substrate protein remaining % ≤ 80%) | A (A is defined as 0% ≤ substrate protein remaining % ≤ 80%) | B (B is defined as substrate protein remaining % > 80%) | A (A is defined as 0% ≤ substrate protein remaining % ≤ 80%)
7 | NCc1cncc(N2CCC(=O)NC2=O)n1 [GT-07801, 1-(6-(aminomethyl)pyrazin-2-yl)dihydropyrimidine-2,4(1H,3H)-dione] | B (B is defined as substrate protein remaining % > 80%) | B (B is defined as substrate protein remaining % > 80%) | B (B is defined as substrate protein remaining % > 80%) | B (B is defined as substrate protein remaining % > 80%) | A (A is defined as 0% ≤ substrate protein remaining % ≤ 80%) | B (B is defined as substrate protein remaining % > 80%)
8 | O=C1CCC(Nc2ccc(CO)nn2)C(=O)N1 (stereo not drawn) [GT-07803, 3-((6-(hydroxymethyl)pyridazin-3-yl)amino)piperidine-2,6-dione] | B (B is defined as substrate protein remaining % > 80%) | A (A is defined as 0% ≤ substrate protein remaining % ≤ 80%) | A (A is defined as 0% ≤ substrate protein remaining % ≤ 80%) | A (A is defined as 0% ≤ substrate protein remaining % ≤ 80%) | B (B is defined as substrate protein remaining % > 80%) | B (B is defined as substrate protein remaining % > 80%)
9 | O=Cc1ccncc1NC1CCC(=O)NC1=O (stereo not drawn) [GT-07804, 3-((2,6-dioxopiperidin-3-yl)amino)isonicotinaldehyde] | B (B is defined as substrate protein remaining % > 80%) | B (B is defined as substrate protein remaining % > 80%) | A (A is defined as 0% ≤ substrate protein remaining % ≤ 80%) | A (A is defined as 0% ≤ substrate protein remaining % ≤ 80%) | B (B is defined as substrate protein remaining % > 80%) | B (B is defined as substrate protein remaining % > 80%)
10 | O=Cc1cncnc1NC1CCC(=O)NC1=O (stereo not drawn) [GT-07805, 4-((2,6-dioxopiperidin-3-yl)amino)pyrimidine-5-carbaldehyde] | B (B is defined as substrate protein remaining % > 80%) | A (A is defined as 0% ≤ substrate protein remaining % ≤ 80%) | A (A is defined as 0% ≤ substrate protein remaining % ≤ 80%) | A (A is defined as 0% ≤ substrate protein remaining % ≤ 80%) | B (B is defined as substrate protein remaining % > 80%) | B (B is defined as substrate protein remaining % > 80%)
11 | CC(C)(C)[Si](C)(C)OCc1cnc(NC2CCC(=O)NC2=O)nc1 (stereo not drawn) [GT-07808, 3-((5-(((tert-butyldimethylsilyl)oxy)methyl)pyrimidin-2-yl)amino)piperidine-2,6-dione] | A (A is defined as 0% ≤ substrate protein remaining % ≤ 80%) | A (A is defined as 0% ≤ substrate protein remaining % ≤ 80%) | A (A is defined as 0% ≤ substrate protein remaining % ≤ 80%) | A (A is defined as 0% ≤ substrate protein remaining % ≤ 80%) | B (B is defined as substrate protein remaining % > 80%) | B (B is defined as substrate protein remaining % > 80%)
